Results on 18 compounds are retold here after PubChem BioAssay AID248 (DTP/NCI, 2004).

In this assay the test system is L1210 leukemia ip in BDF1 mice, survival T/C. As to the kind of experiment: NCI In Vivo Anticancer Drug Screen. Data for tumor model L1210 Leukemia (intraperitoneal) in B6D2F1 (BDF1) mice. The settings on record: endpoint: mean survival time, higher = longer survival. In short, it runs like this: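 In this screen, tumor-bearing mice given compound are compared to those given vehicle, and their survival values are reported as a treated-to-control quotient.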

Where [1] appears, read: dose: 100.0 mg/kg/injection, schedule: Q04DX003 (ip), vehicle: saline.
The mark [2] stands for this setting: dose: 200.0 mg/kg/injection, schedule: Q04DX003 (ip), vehicle: saline.
The mark [3] stands for this setting: dose: 400.0 mg/kg/injection, schedule: Q04DX003 (ip), vehicle: saline.
The mark [4] stands for this setting: dose: 100.0 mg/kg/injection, schedule: Q01DX001 (ip), vehicle: saline.
Setting [5] is: dose: 200.0 mg/kg/injection, schedule: Q01DX001 (ip), vehicle: saline.
The mark [6] stands for this setting: dose: 400.0 mg/kg/injection, schedule: Q01DX001 (ip), vehicle: saline.
[7] abbreviates: dose: 100.0 mg/kg/injection, schedule: Q01DX009 (ip), vehicle: Klucel (hydroxypropylcellulose) (HPC).
Where [8] appears, read: dose: 100.0 mg/kg/injection, schedule: Q04DX003 (ip), vehicle: Klucel (hydroxypropylcellulose) (HPC).
The mark [9] stands for this setting: dose: 200.0 mg/kg/injection, schedule: Q01DX009 (ip), vehicle: Klucel (hydroxypropylcellulose) (HPC).
Where [10] appears, read: dose: 200.0 mg/kg/injection, schedule: Q04DX003 (ip), vehicle: Klucel (hydroxypropylcellulose) (HPC).
Setting [11] is: dose: 400.0 mg/kg/injection, schedule: Q04DX003 (ip), vehicle: Klucel (hydroxypropylcellulose) (HPC).
Where [12] appears, read: dose: 6.25 mg/kg/injection, schedule: Q01DX009 (ip), vehicle: saline.
Setting [13] is: dose: 12.5 mg/kg/injection, schedule: Q01DX009 (ip), vehicle: saline.
Setting [14] is: dose: 100.0 mg/kg/injection, schedule: Q04DX002 (ip), vehicle: Klucel (hydroxypropylcellulose) (HPC).
[15] abbreviates: dose: 200.0 mg/kg/injection, schedule: Q04DX002 (ip), vehicle: Klucel (hydroxypropylcellulose) (HPC).
The mark [16] stands for this setting: dose: 400.0 mg/kg/injection, schedule: Q04DX002 (ip), vehicle: Klucel (hydroxypropylcellulose) (HPC).
Setting [17] is: dose: 100.0 mg/kg/injection, schedule: Q04DX002 (ip), vehicle: gum acacia.
Where [18] appears, read: dose: 200.0 mg/kg/injection, schedule: Q04DX002 (ip), vehicle: gum acacia.
The mark [19] stands for this setting: dose: 400.0 mg/kg/injection, schedule: Q04DX002 (ip), vehicle: gum acacia.

Molecules are shown by their SMILES. Several values for one entry are separate records, joined by “and”; a condition that tells them apart may be missing. Equal entries are not always repeated. Toxic doses and inconclusive results are not listed.

For `CCC1CC(O)c2ccccc2O1` (configuration not stated), the T/C runs as follows: (dose: 100.0 mg/kg/injection, schedule: Q01DX001 (ip), vehicle: other) 103 % of control; (dose: 200.0 mg/kg/injection, schedule: Q01DX001 (ip), vehicle: other) 95 % of control; (dose: 400.0 mg/kg/injection, schedule: Q01DX001 (ip), vehicle: other) 91 % of control.
`C[N+]1(C)CCN(c2ccccc2)CC1`: the T/C was 108 % of control (dose: 9.38 mg/kg/injection, schedule: Q01DX001 (ip), vehicle: saline) and 105 % of control (dose: 18.75 mg/kg/injection, schedule: Q01DX001 (ip), vehicle: saline).
On to `OC1(C2(O)c3ccccc3Oc3ccccc32)c2ccccc2Oc2ccccc21`, for which the T/C was 95 % of control under setting [1], 95 % of control under setting [2] and 97 % of control under setting [3].
On to `NC(=Nc1ccc(Cl)cc1)N/N=C/c1ccc(Cl)cc1`, for which the T/C was 94 % of control (dose: 5.0 mg/kg/injection, schedule: Q01DX001 (ip), vehicle: saline); 100 % of control (dose: 10.0 mg/kg/injection, schedule: Q01DX001 (ip), vehicle: saline); 94 % of control (dose: 20.0 mg/kg/injection, schedule: Q01DX001 (ip), vehicle: saline); 91 % of control (dose: 40.0 mg/kg/injection, schedule: Q01DX001 (ip), vehicle: saline); 91 % of control (dose: 80.0 mg/kg/injection, schedule: Q01DX001 (ip), vehicle: saline); 92 % of control under setting [4]. Further, the T/C is 89 % of control under setting [5] and 103 % of control under setting [6].
Regarding `Cc1cc(O)c(N=Nc2ccccc2)cc1C`, the T/C is 102 % of control under setting [7]; 101 % of control under setting [8]; 96 % of control under setting [9]; 96 % of control under setting [10]; 96 % of control (dose: 400.0 mg/kg/injection, schedule: Q01DX009 (ip), vehicle: Klucel (hydroxypropylcellulose) (HPC)); 92 % of control under setting [11].
For `CC1(CO)C2CCC(CC2)C1CO` (configuration not stated), the T/C by setting is: (dose: 100.0 mg/kg/injection, schedule: Q04DX003 (ip), vehicle: acetone) 98 % of control; (dose: 200.0 mg/kg/injection, schedule: Q04DX003 (ip), vehicle: acetone) 96 % of control; (dose: 400.0 mg/kg/injection, schedule: Q04DX003 (ip), vehicle: acetone) 93 % of control.
Turning to `CCC1CN2C(=N1)c1cc(Cl)ccc1-c1ccc(Cl)cc12` (configuration not stated), the T/C under setting [7] was 95 % of control; the T/C under setting [8] was 101 % of control; the T/C under setting [9] was 98 % of control; the T/C under setting [10] was 103 % of control; the T/C under setting [11] is 116 % of control.
In the case of `CC(=O)OCC1CCC(NC(=O)N(CCCl)N=O)CC1` (configuration not stated), the T/C was 104 % of control (dose: 3.0 mg/kg/injection, schedule: Q01DX001 (ip), vehicle: Klucel (hydroxypropylcellulose) (HPC)); 114 % of control (dose: 5.0 mg/kg/injection, schedule: Q01DX001 (ip), vehicle: Klucel (hydroxypropylcellulose) (HPC)); 167 % of control (dose: 8.0 mg/kg/injection, schedule: Q01DX001 (ip), vehicle: Klucel (hydroxypropylcellulose) (HPC)); 221 % of control (dose: 12.0 mg/kg/injection, schedule: Q01DX001 (ip), vehicle: Klucel (hydroxypropylcellulose) (HPC)); 270 % of control and 316 % of control (dose: 18.0 mg/kg/injection, schedule: Q01DX001 (ip), vehicle: Klucel (hydroxypropylcellulose) (HPC)); 316 % of control (dose: 26.0 mg/kg/injection, schedule: Q01DX001 (ip), vehicle: Klucel (hydroxypropylcellulose) (HPC)). Further, the T/C (dose: 40.0 mg/kg/injection, schedule: Q01DX001 (ip), vehicle: Klucel (hydroxypropylcellulose) (HPC)) is 208 % of control.
For the compound `N#Cc1sc2ccccc2c1O`, the T/C by setting is: (dose: 50.0 mg/kg/injection, schedule: Q04DX003 (ip), vehicle: Klucel (hydroxypropylcellulose) (HPC)) 106 % of control; under setting [8], 97 % of control; under setting [10], 95 % of control.
`CCC[As](=O)(O)CC(C)C`: the T/C reads like this: (dose: 6.25 mg/kg/injection, schedule: Q01DX001 (ip), vehicle: saline) 102 % of control; under setting [12], 119 % of control; (dose: 12.5 mg/kg/injection, schedule: Q01DX001 (ip), vehicle: saline) 98 % of control; under setting [13], 101 % of control and 108 % of control; (dose: 12.5 mg/kg/injection, schedule: Q04DX003 (ip), vehicle: saline) 94 % of control; (dose: 25.0 mg/kg/injection, schedule: Q01DX001 (ip), vehicle: saline) 101 % of control. The T/C (dose: 25.0 mg/kg/injection, schedule: Q01DX009 (ip), vehicle: saline) is 162 % of control; the T/C (dose: 25.0 mg/kg/injection, schedule: Q04DX002 (ip), vehicle: saline) was 97 % of control; the T/C (dose: 25.0 mg/kg/injection, schedule: Q04DX003 (ip), vehicle: saline) was 113 % of control; the T/C (dose: 50.0 mg/kg/injection, schedule: Q01DX001 (ip), vehicle: saline) was 104 % of control; the T/C (dose: 50.0 mg/kg/injection, schedule: Q04DX002 (ip), vehicle: saline) was 103 % of control; the T/C (dose: 50.0 mg/kg/injection, schedule: Q04DX003 (ip), vehicle: saline) is 95 % of control.
In the case of `CC(=O)NC(CSCc1ccccc1)(SCc1ccccc1)C(=O)O` (configuration not stated), the T/C by setting is: (dose: 100.0 mg/kg/injection, schedule: Q01DX001 (ip), vehicle: Klucel (hydroxypropylcellulose) (HPC)) 92 % of control; (dose: 200.0 mg/kg/injection, schedule: Q01DX001 (ip), vehicle: Klucel (hydroxypropylcellulose) (HPC)) 90 % of control; (dose: 400.0 mg/kg/injection, schedule: Q01DX001 (ip), vehicle: Klucel (hydroxypropylcellulose) (HPC)) 92 % of control.
`CCn1cc(C(=O)O)c(=O)c2ccc3ccccc3c21`: the T/C by setting is: under setting [14], 100 % of control; under setting [15], 103 % of control; under setting [16], 100 % of control.
In the case of `CCC(C)c1cccc2c(C(CC)CC)cccc12` (configuration not stated), the T/C is 104 % of control under setting [4], 106 % of control under setting [5] and 112 % of control under setting [6].
Consider `CCC1COC(=S)N1` (configuration not stated), for which the T/C is, setting by setting: (dose: 6.25 mg/kg/injection, schedule: Q01DX001 (ip), vehicle: Klucel (hydroxypropylcellulose) (HPC)) 93 % of control; under setting [12], 91 % of control; (dose: 12.5 mg/kg/injection, schedule: Q01DX001 (ip), vehicle: Klucel (hydroxypropylcellulose) (HPC)) 108 % of control; under setting [13], 105 % of control; (dose: 25.0 mg/kg/injection, schedule: Q01DX001 (ip), vehicle: Klucel (hydroxypropylcellulose) (HPC)) 100 % of control; (dose: 25.0 mg/kg/injection, schedule: Q04DX002 (ip), vehicle: saline with Tween-80) 103 % of control.
As to `Cc1cc(C)c(NC(=O)c2cccc([N+](=O)[O-])c2C(=O)O)cc1C`, the T/C is 105 % of control under setting [14], 96 % of control under setting [15] and 108 % of control under setting [16].
Consider `NC(=N\C1=NCCN1)/C(N)=N/C1=NCCN1`, for which the T/C is, setting by setting: under setting [17], 89 % of control; under setting [18], 100 % of control; under setting [19], 97 % of control.
Turning to `NC(=Nc1ccccc1)C(N)=Nc1ccccc1`, the T/C is, setting by setting: under setting [17], 107 % of control; under setting [18], 96 % of control; under setting [19], 93 % of control.
Regarding `CC(N)=O.CC(N)=O.Nc1ccnc(=O)[nH]1.[Cl][Pt]`, the T/C is 110 % of control (dose: 100.0 mg/kg/injection, schedule: Q01DX009 (ip), vehicle: saline); 114 % of control under setting [1]; 114 % of control (dose: 200.0 mg/kg/injection, schedule: Q01DX009 (ip), vehicle: saline); 116 % of control under setting [2]; 101 % of control (dose: 400.0 mg/kg/injection, schedule: Q01DX009 (ip), vehicle: saline); 119 % of control under setting [3].
